Assay results published in article PMC12394658, “Discovery of Zharp1-163 as a dual inhibitor of ferroptosis and necroptosis for the treatment of inflammatory disorders and kidney injury” (Cell Death Discovery, 2025).

How the values were obtained:
Experiment in all cases: biochemical
Design in all cases: Kinase selectivity panel of 81 human kinases, ADP-Glo or HTRF, per cent inhibition at 1 uM
[1] = molecular target: MAPKAPK2 (Homo sapiens, UniProt P49137)
Experimental: (§1) We next sought to determine the binding affinity of Zharp1-163 for RIPK1 or RIPK3 via a binding assay (Fig. 4A). […] Further, we evaluated the selectivity of Zharp1-163 against a panel of 81 kinases (at 1000 nM). […] To elucidate the binding interactions between Zharp1-163 and RIPK1 kinase, we conducted molecular docking studies using the RIPK1 crystal structure (PDB ID: 4NEU). The predicted binding conformations and interaction patterns between Zharp1-163 and the RIPK1 kinase domain are presented in Fig. 4D, E. Like the cocrystallized ligand in the 4NEU crystal complex, Zharp1-163 was predicted to act as a typical type II kinase inhibitor, interacting with the DLG (Asp156-Leu157-Gly158)-out conformation of RIPK1 (Fig. 4D, E). The 2-aminoimidazo [1,2-a] pyridine moiety of Zharp1-163 formed hydrogen bonds with Met95 in the hinge region. Furthermore, the carboxylate group of Zharp1-163 established hydrogen bonds with Asp156 in the DLG-out region. Additionally, the saturated ring of Zharp1-163 was deeply embedded within the hydrophobic allosteric pocket formed by the residues Met66, Met67, Leu70, Val76, Leu129, and Leu159, which is created by the DLG-out conformation in RIPK1 (Fig. 4D, E).  Fig. 4 Zharp1-163 is a selective inhibitor of RIPK1 kinase activity. A Binding affinity curve of Zharp1-163 with RIPK1 and RIPK3. B In an in vitro kinase activity assay, recombinant RIPK1 was incubated with Zharp1-163, after which RIPK1 kinase activity was determined by measuring ATP levels via a luciferase reporter assay system. […] Kinases are marked with dots, where the color of each kinase indicates the level of inhibition achieved by Zharp1-163. D Predicted binding conformation of Zharp1-163. E Schematic representation of the interaction patterns between Zharp1-163 and the key residues in the binding pocket of the RIPK1 kinase. […] NIH3T3-RIPK3 cells were pretreated with the indicated concentrations of Zharp1-163 for 2 h and then treated with AP20187 (100 nM) for 24 h. Cell viability was determined by measuring ATP levels. […] HeLa-MLKL (1–190) cells were pretreated with the indicated concentrations of Zharp1-163 for 2 h and subsequently treated with AP20187 (100 nM) for 24 h. Cell viability was determined by measuring ATP levels. H Viability of IFNβ-primed MEFs at 18 h after stimulation with poly(I:C) plus z-VAD and treatment with Zharp1-163 (10 μM). I Effects of different concentrations of Zharp1-163 on WT or RIPK1 KO HT-29 cells. Cell viability was determined by measuring ATP levels. The data are presented as the mean ± SD of triplicate samples.

[2] = molecular target: SRC (Homo sapiens, UniProt P12931)
Experimental: as §1

[3] = molecular target: T1, TRKB (Homo sapiens, UniProt Q16620)
T1 construct: gene NTRK2
Experimental: as §1

[4] = molecular target: T2, AurB (Homo sapiens, UniProt Q96GD4)
T2 construct: gene AURKB
Experimental: as §1

[5] = molecular target: T3, DCAMKL2 (Homo sapiens, UniProt Q8N568)
T3 construct: gene DCLK2
Experimental: as §1

[6] = molecular target: HIPK1 (Homo sapiens, UniProt Q86Z02)
Experimental: as §1

[7] = molecular target: IRAK4 (Homo sapiens, UniProt Q9NWZ3)
Experimental: as §1

[8] = molecular target: CDK2/CycE1 (Homo sapiens, UniProt P24941)
Experimental: as §1

[9] = molecular target: MET (Homo sapiens, UniProt P08581)
Experimental: as §1

[10] = molecular target: BRAF (Homo sapiens, UniProt P15056)
Experimental: as §1

[11] = molecular target: EGFR (Homo sapiens, UniProt P00533)
Experimental: as §1

[12] = molecular target: NEK1 (Homo sapiens, UniProt Q96PY6)
Experimental: as §1

[13] = molecular target: T4, CK1γ3 (Homo sapiens, UniProt Q9Y6M4)
T4 construct: gene CSNK1G3
Experimental: as §1

[14] = molecular target: EPHB4 (Homo sapiens, UniProt P54760)
Experimental: as §1

T3 sequence (Q8N568 whole entry): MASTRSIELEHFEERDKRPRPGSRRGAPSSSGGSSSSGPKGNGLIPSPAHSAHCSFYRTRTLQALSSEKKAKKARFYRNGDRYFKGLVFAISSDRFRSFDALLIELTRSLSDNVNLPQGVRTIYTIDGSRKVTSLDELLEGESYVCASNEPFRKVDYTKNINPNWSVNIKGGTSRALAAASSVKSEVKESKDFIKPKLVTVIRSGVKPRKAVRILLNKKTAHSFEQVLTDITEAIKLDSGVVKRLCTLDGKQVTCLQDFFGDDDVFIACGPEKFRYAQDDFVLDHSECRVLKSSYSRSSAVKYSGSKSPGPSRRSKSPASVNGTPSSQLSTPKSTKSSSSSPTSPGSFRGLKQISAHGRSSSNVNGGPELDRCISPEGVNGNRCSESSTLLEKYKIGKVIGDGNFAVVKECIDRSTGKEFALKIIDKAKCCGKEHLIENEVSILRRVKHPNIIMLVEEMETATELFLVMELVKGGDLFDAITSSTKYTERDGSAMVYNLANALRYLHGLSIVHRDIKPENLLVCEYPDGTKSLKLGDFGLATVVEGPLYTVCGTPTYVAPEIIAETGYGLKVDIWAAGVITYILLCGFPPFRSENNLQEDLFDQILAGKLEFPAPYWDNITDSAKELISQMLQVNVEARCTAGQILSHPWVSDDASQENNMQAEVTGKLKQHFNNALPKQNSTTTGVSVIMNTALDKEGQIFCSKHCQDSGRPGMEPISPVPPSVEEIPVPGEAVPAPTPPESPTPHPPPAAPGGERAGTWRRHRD
Chain of MAPKAPK2 (P49137 whole entry, the tested form may be a part): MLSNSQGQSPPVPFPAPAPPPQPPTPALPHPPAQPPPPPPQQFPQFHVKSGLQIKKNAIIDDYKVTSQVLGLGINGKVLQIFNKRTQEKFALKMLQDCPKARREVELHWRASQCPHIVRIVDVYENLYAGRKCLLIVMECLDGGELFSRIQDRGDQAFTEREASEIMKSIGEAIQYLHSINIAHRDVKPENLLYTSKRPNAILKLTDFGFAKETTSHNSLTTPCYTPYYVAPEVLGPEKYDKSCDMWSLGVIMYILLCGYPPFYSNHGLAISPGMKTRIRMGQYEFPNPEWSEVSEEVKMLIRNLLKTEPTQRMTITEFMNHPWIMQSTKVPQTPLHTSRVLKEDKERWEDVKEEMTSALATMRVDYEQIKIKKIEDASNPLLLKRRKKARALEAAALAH
T2 sequence (Q96GD4 whole entry): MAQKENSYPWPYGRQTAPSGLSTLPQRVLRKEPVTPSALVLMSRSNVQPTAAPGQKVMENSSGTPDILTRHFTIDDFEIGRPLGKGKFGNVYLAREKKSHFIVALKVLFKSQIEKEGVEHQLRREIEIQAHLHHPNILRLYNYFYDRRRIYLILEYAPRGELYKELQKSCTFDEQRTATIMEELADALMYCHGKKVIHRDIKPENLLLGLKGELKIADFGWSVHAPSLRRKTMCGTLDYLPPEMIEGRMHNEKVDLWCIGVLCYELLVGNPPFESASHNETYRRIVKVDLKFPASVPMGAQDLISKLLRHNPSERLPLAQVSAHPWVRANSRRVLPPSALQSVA
Chain of EGFR (P00533 whole entry): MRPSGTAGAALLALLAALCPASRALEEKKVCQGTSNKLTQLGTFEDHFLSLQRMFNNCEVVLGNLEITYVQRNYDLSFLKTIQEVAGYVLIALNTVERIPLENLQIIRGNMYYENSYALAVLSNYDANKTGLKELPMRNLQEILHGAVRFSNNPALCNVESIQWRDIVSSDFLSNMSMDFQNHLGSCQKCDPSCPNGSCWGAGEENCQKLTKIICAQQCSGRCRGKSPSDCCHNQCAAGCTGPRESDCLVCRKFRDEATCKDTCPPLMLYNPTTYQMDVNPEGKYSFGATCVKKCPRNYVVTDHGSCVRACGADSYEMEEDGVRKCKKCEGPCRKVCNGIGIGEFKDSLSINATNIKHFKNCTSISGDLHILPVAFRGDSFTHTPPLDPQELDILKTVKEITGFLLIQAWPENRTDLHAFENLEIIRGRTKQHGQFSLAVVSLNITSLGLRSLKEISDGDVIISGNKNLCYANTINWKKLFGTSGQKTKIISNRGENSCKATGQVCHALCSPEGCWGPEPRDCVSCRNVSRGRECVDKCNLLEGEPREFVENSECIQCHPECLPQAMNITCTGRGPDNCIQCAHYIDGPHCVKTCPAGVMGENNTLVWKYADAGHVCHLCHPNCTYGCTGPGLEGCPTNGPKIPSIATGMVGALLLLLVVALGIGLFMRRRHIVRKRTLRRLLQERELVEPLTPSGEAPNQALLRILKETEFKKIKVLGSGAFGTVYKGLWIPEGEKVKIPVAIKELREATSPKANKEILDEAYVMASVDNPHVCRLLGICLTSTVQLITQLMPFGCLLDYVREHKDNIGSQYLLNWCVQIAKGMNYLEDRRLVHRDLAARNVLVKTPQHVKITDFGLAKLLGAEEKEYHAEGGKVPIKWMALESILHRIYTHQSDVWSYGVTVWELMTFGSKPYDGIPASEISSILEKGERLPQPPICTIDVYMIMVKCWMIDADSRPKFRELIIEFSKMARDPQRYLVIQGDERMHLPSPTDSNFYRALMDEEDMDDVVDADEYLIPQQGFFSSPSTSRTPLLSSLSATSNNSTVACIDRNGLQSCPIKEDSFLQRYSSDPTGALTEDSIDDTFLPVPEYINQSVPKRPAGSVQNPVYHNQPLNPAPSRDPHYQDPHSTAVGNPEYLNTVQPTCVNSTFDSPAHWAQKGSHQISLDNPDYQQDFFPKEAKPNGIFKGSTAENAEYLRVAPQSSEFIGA
Chain of HIPK1 (Q86Z02 whole entry): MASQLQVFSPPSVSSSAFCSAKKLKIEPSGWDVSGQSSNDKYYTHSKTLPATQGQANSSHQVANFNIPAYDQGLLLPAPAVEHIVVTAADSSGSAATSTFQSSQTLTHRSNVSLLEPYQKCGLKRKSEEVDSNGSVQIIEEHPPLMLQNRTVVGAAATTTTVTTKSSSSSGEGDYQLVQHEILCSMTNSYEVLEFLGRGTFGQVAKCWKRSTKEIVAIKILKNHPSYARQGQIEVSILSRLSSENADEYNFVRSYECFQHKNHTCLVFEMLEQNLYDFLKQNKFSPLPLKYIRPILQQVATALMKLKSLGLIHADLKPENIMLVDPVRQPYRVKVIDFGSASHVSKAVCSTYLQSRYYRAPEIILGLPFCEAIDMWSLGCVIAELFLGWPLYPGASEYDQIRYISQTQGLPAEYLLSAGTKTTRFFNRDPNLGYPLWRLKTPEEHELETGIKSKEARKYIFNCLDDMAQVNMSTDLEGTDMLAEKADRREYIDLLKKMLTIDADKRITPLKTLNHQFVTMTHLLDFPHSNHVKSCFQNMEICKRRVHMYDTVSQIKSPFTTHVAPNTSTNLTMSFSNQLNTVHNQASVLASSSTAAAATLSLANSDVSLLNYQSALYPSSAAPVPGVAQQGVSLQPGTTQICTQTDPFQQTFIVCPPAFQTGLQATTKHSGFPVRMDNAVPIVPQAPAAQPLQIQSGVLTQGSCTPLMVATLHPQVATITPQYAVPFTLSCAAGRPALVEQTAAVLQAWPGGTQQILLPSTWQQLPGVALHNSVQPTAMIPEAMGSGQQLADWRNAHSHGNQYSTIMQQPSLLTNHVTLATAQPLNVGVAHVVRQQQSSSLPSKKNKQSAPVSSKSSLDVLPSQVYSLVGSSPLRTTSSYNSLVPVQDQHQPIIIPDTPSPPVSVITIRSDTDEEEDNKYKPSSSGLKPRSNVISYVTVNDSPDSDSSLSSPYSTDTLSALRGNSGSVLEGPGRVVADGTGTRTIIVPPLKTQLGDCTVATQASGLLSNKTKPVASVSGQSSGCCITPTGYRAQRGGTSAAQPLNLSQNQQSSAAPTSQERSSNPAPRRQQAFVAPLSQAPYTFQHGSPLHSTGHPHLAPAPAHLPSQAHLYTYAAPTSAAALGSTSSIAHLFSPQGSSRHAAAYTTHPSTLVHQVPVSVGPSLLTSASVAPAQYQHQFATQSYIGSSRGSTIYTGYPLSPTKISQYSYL
T4 sequence (Q9Y6M4 whole entry): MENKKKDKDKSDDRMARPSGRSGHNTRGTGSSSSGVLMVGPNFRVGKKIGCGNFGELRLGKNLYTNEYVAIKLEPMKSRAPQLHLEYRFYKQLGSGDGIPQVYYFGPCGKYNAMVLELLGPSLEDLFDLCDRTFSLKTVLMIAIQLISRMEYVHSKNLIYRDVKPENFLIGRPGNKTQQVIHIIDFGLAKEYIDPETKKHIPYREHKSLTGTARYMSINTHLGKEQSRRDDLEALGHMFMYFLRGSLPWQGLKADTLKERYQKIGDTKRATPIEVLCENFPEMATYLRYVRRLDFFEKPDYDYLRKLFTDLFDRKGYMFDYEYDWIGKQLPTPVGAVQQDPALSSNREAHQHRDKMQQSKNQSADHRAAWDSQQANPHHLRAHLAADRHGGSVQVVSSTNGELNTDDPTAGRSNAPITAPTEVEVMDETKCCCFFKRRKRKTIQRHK
Chain of SRC (P12931 whole entry): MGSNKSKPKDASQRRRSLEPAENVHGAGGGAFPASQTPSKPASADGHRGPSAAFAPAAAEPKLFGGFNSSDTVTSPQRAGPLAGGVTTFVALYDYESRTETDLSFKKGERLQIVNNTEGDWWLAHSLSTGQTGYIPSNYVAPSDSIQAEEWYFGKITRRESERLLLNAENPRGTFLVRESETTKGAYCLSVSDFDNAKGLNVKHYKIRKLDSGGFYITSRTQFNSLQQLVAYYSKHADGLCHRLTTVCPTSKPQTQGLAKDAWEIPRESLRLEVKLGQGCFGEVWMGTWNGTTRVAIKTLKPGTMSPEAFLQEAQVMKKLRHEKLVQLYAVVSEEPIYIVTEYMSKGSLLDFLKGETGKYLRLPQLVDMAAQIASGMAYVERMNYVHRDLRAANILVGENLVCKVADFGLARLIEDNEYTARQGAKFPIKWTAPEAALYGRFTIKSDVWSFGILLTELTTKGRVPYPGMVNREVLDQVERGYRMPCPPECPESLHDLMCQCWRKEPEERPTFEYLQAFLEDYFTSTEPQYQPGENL

Which results are given for `Nc1cn2cc(-c3cnc4c(c3)N(C(=O)OC3CCCCC3)CCO4)ccc2n1` [Zharp1-163]?
inhibition at 1 µM ([1]; replicate Data1): -3.5%; inhibition at 1 µM ([1]; replicate Data2): -31.8%; inhibition at 1 µM ([2]; replicate Data1): -5.44%; inhibition at 1 µM ([2]; replicate Data2): -0.43%; inhibition at 1 µM ([3]; replicate Data1): 61.4%; inhibition at 1 µM ([3]; replicate Data2): 58.1%; inhibition at 1 µM ([4]; replicate Data1): 8.89%; inhibition at 1 µM ([4]; replicate Data2): 13.4%; inhibition at 1 µM ([5]; replicate Data1): 5.19%; inhibition at 1 µM ([5]; replicate Data2): 1.92%; inhibition at 1 µM ([6]; replicate Data1): 8.39%; inhibition at 1 µM ([6]; replicate Data2): -1.36%; inhibition at 1 µM ([7]; replicate Data1): 8.12%; inhibition at 1 µM ([7]; replicate Data2): 17.2%; inhibition at 1 µM ([8]; replicate Data1): 3.25%; inhibition at 1 µM ([8]; replicate Data2): -0.65%; inhibition at 1 µM ([9]; replicate Data1): 18.3%; inhibition at 1 µM ([9]; replicate Data2): 3.81%; inhibition at 1 µM ([10]; replicate Data1): 6.11%; inhibition at 1 µM ([10]; replicate Data2): -8.57%; inhibition at 1 µM ([11]; replicate Data1): -2.16%; inhibition at 1 µM ([11]; replicate Data2): -4.3%; inhibition at 1 µM ([12]; replicate Data1): 4.63%; inhibition at 1 µM ([12]; replicate Data2): 13.4%; inhibition at 1 µM ([13]; replicate Data1): 14.1%; inhibition at 1 µM ([13]; replicate Data2): 20.6%; inhibition at 1 µM ([14]; replicate Data1): 1.63%; inhibition at 1 µM ([14]; replicate Data2): -4.43%
